Experimental data: patent publication US20260216144A1, “TARGETING MB2 OF THE MYC ONCOGENE AND ITS INTERACTION WITH TRRAP IN CANCER” (priority 2019, published 2026)

Legend:
[1] = target: T1, endogenous MYC:TRRAP complex (Homo sapiens, UniProt P01106+Q9Y4A5); assay: co-IP of the endogenous MYC:TRRAP complex from HeLa cells incubated with compounds; type: cell-based; settings: for inhibition of MYC:TRRAP complex formation: luminescence assay and co-IP assay, compared to DMSO vehicle control, FIG. 24A
T1 construct: immunoprecipitation experiments using endogenous full length MYC and TRRAP
Experimental: (§1) FIGS. 23A-23B show the results of co-IP assay experiments comparing the top 17 hits in immunoprecipitation experiments using endogenous full length MYC and TRRAP. In these experiments immunocomplexes were immunoprecipitated with anti-MYC beads in the presence of 25 μM of each of the 17 top compounds. Experiments were carried out in cells (compounds were added to the media of cells) (FIG. 23B) or in vitro (compounds were added directly to the purified complex on pre-washed beads) (FIG. 23A). Immunoprecipitation of TRRAP was normalized to the immunoprecipitation of MYC.
The indicated TRRAP constructs were cloned into a CMV-driven plasmid containing an N-terminal FLAG tag as previously described (23). Full-length wild-type (WT) MYC and MYC ΔMB2 (A129-145), and the indicated MYC constructs were cloned into the same CMV-driven plasmid but containing a Glu-Glu (PYO) tag instead. HEK293T cells were co-transfected with equal amounts of each plasmid using LipoD293™ In vitro DNA Transfection Reagent per protocol (SignaGen). Cells were plated subconfluently 16-20 hours prior to transfection. After 24 hours, cells were lysed in F-buffer (10 mM TRIS pH 7.5, 50 mM NaCl, 30 mM sodium pyrophosphate, […], 10% glycerol, 1% Triton-X, 50 mM NaF) supplemented with 1 mM PMSF, 10 μM Leupeptin, 10 μM Pepstatin-A, and 10 μg/mL Aprotinin for immunoprecipitations and co-immunoprecipitations. Immunoprecipitations were performed using anti-FLAG (Sigma Aldrich), anti-PYO (Covance), or anti-MYC (C33 Santa Cruz Biotechnology) agarose preconjugated beads. Co-immunoprecipitation was analyzed by western blots with the following antibodies: MYC (sc-764 Santa Cruz Biotechnology), TRRAP (A301-132A Bethel Laboratories), FLAG (F7425 Sigma Aldrich), and PYO (Covance).
Co-IP experiments of the endogenous MYC:TRRAP complex were carried out to validate the results from the MYC:TRRAP in-cell luminescence complementation screen performed. HeLa cells were again subjected to the effects of incubation with each of the 17 compounds from FIG. 16 for 2 h before analysis. FIG. 19, FIG. 20, and FIG. 21 present the effects of these compounds on the endogenous MYC:TRRAP and MYC:MAX complexes. Like before, all compounds except for 7 and 11 had no effect on the levels of MYC or TRRAP. […] Incubation with some of the compounds that scored positive by the in-cell luminescence complementation screen had the predicted effect on the endogenous MYC:TRRAP complex. This validates the preliminary compound screen and presents the completion of a major milestone in the effort to therapeutically target MYC in cancer.

MYC:TRRAP interaction = MYC:TRRAP interaction (Homo sapiens, UniProt P01106+Q9Y4A5); assay: MYC:TRRAP in-cell luminescence complementation assay (NanoBiT; SmB-MYC 1-190 and TRRAP 2033-2283-LgB in HeLa cells); type: cell-based
How it was run: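 HeLa cells transfected with SmB-MYC 1-190, TRRAP 2033-2283-LgB and EGFP reporter (6.7:60:33.3 ng plasmid per well); two days later treated 2 h with compounds at 25 μM. NanoBiT luminescence normalized to EGFP fluorescence; hits retested at 10 μM and counter-screened on LgB/SmB alone.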

MYC:TRRAP complexes = target: T2, MYC:TRRAP complexes (Homo sapiens, UniProt P01106+Q9Y4A5); assay: in vitro co-IP (compounds added directly to the purified MYC:TRRAP complex on pre-washed beads); type: binding; settings: in vitro by co-IP; normalized to protein levels; FIG. 26B; read-out: IC50 for the inhibition of MYC:TRRAP
T2 construct: immunoprecipitation experiments using endogenous full length MYC and TRRAP
Experimental: as §1
This represents an ^~10-fold increase in activity from NSC657456.

[2] = Table 2, compounds with >80% similarity to compound 10 (NSC657456), 10 uM

MYC:TRRAP interaction, sequence (P01106 16-205): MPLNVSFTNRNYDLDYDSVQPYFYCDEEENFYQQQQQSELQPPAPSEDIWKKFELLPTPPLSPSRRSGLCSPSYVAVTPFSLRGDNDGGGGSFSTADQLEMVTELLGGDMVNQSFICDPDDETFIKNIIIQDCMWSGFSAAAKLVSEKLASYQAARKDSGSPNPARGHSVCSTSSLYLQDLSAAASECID
MYC:TRRAP interaction, sequence (Q9Y4A5 2051-2301): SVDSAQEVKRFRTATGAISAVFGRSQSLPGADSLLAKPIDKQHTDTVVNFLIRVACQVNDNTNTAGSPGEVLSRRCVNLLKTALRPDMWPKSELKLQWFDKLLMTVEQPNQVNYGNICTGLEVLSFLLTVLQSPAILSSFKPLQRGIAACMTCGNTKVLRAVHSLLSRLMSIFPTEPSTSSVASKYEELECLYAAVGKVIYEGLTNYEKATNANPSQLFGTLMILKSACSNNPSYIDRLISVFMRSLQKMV
T1 sequence (P01106 16-454): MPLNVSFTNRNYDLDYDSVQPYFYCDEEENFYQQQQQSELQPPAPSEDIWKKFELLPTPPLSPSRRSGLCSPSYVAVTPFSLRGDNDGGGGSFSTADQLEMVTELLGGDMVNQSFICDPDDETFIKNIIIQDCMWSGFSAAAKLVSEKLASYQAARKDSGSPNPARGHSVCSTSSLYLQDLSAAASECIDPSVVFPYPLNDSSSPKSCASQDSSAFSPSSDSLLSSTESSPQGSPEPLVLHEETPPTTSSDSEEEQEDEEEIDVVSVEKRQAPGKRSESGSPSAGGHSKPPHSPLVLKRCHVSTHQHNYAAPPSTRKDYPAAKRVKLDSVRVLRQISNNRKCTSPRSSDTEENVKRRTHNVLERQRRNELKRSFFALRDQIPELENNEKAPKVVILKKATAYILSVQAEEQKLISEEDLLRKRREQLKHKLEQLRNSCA
T1 sequence (Q9Y4A5 1-3830 isoform Q9Y4A5-2): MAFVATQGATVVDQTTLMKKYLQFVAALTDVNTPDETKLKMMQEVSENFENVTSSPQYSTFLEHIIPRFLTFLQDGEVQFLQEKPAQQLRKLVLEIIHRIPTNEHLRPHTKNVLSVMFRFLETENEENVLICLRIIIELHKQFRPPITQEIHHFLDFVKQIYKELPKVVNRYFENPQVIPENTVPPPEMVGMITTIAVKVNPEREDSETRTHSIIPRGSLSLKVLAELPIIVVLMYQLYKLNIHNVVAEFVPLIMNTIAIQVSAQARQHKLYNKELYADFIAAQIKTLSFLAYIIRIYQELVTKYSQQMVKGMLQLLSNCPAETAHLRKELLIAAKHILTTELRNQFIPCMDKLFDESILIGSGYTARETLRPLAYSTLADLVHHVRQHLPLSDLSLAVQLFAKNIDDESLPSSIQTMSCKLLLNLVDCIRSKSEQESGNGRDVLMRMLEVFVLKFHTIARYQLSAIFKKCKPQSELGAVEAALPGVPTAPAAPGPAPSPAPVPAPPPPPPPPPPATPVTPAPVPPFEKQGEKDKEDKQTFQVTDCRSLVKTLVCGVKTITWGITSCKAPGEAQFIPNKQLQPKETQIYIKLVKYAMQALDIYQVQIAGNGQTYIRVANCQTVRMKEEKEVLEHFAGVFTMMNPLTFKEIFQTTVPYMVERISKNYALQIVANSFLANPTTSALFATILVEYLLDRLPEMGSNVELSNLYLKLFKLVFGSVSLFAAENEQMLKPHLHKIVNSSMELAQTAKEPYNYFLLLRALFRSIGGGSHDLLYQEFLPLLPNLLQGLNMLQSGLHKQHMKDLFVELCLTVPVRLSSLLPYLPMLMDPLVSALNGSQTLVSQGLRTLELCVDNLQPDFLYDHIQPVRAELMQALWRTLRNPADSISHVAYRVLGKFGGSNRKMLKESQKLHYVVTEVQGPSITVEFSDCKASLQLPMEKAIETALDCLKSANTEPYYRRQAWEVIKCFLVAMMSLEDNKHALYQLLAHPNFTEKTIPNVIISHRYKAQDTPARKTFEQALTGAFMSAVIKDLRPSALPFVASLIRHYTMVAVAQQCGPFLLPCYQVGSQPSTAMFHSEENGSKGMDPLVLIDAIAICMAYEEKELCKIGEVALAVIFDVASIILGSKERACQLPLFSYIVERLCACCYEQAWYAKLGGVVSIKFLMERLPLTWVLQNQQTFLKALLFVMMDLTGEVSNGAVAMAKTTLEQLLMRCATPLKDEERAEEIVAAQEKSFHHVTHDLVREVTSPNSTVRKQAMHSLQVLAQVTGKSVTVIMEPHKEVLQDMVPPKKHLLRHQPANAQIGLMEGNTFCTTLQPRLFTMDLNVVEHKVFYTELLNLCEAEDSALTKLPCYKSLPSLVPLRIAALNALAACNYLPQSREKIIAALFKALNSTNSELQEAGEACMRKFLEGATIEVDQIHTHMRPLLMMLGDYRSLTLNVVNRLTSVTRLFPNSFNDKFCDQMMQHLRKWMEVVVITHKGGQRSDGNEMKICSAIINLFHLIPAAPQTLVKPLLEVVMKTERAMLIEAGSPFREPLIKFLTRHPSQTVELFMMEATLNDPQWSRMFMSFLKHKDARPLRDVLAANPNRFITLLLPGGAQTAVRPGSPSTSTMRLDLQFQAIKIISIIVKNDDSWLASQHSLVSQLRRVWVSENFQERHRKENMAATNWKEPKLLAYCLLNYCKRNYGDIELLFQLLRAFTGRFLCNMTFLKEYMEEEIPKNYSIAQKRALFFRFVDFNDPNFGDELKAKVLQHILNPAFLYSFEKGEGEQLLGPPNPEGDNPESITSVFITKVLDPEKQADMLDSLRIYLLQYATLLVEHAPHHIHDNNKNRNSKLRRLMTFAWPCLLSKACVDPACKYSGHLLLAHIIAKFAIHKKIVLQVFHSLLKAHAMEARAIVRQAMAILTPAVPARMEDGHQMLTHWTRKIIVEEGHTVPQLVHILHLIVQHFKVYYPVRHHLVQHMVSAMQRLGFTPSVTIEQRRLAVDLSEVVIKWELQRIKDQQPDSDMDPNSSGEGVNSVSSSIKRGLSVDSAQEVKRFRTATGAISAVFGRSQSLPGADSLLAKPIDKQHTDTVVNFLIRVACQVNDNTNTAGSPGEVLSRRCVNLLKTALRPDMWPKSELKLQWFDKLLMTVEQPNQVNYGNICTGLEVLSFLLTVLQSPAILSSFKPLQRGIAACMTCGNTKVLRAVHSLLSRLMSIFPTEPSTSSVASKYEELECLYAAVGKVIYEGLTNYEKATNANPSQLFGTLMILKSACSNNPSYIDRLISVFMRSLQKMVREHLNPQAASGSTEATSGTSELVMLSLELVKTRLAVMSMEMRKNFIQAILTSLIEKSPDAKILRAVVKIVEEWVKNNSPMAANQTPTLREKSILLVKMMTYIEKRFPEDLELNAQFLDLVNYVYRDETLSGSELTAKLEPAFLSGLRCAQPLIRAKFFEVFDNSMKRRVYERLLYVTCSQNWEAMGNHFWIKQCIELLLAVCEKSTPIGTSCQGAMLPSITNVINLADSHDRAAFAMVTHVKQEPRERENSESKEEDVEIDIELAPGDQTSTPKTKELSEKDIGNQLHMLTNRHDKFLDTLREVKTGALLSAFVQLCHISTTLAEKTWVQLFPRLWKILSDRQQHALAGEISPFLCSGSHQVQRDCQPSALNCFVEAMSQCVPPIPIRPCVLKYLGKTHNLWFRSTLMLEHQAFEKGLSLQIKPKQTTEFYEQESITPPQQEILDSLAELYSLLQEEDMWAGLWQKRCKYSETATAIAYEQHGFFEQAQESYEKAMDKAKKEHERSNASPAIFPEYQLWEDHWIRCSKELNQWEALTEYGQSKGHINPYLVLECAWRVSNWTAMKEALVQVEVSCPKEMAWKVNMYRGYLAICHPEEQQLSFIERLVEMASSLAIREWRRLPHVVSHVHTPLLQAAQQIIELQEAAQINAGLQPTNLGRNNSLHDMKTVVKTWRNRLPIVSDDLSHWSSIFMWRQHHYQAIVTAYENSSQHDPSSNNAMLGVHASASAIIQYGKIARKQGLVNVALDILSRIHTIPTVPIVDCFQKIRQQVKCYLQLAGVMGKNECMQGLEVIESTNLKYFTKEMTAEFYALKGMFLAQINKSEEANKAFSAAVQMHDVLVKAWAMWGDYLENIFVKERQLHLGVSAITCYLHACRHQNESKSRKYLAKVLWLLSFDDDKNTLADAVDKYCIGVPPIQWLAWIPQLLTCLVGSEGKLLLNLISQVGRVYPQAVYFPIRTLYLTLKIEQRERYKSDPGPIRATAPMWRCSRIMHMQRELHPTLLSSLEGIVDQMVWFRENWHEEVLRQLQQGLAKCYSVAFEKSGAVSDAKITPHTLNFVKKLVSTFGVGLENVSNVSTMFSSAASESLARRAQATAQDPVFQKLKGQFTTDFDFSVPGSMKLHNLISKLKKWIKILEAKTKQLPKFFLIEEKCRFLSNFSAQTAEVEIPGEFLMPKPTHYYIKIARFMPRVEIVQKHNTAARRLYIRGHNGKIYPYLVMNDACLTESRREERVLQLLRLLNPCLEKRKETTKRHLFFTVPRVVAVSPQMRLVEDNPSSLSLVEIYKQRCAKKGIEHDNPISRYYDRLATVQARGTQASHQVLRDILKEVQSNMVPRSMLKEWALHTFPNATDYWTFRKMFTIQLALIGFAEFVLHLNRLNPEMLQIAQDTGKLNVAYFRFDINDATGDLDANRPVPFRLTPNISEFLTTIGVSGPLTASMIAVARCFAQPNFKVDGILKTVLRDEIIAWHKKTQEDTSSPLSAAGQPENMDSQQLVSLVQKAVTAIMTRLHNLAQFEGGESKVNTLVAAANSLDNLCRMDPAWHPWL
T2 sequence (P01106 16-454): as the sequence (P01106 16-454) above
T2 sequence (Q9Y4A5 1-3830 isoform Q9Y4A5-2): as the sequence (Q9Y4A5 1-3830 isoform Q9Y4A5-2) above

SMILES	inhibitory activity on immunoprecipitation of TRRAP normalized to MYC ([1]; 25 μM, top 17 hits, in cells or in vitro, FIG. 23A-23B)	inhibition of MYC:TRRAP complex formation [1]	% Inhibition 10 uM (MYC:TRRAP interaction; Table 1, 46 primary hits at 10 uM, HeLa cells, triplicate measurements)	% Inhibition 10 uM (MYC:TRRAP interaction; [2])	inhibition of MYC:TRRAP binding (MYC:TRRAP interaction; most consistent inhibition in multiple assays)	inhibition of the endogenous MYC:TRRAP interaction ([1]; FIG. 24)	IC50 (MYC:TRRAP complexes)	concentration that inhibits MYC:TRRAP complex formation (MYC:TRRAP interaction; FIG. 25, 26)	increase in activity from NSC657456 (MYC:TRRAP interaction; compared with NSC657456)	IC50 (MYC:TRRAP interaction; in cells, in-cell luminescence complementation assay, normalized to MYC and TRRAP protein levels, FIG. 26A, read-out: IC50 for the inhibition of MYC:TRRAP)
Oc1[nH]c2ccccc2c1/N=N/c1nc(-c2ccc(Br)cc2)cs1 [Compound 10, 3-[[4-(4-bromophenyl)-1,3-thiazol-2-yl]diazenyl]-1H-indol-2-ol]	greatest inhibitory activity	70%	58.98%	73.56%	~ 50%	–	–	–	–	–
COc1cc(C=C2S/C(=N/Nc3nc(-c4ccc(Br)cc4)cs3)N=C2O)cc(OC)c1OC (stereo in doubt) [Compound 10N, (2E,5Z)-2-[[4-(4-bromophenyl)-1,3-thiazol-2-yl] hydrazinylidene]-5-[(3,4,5-trimethoxy-phenyl)methylidene]-1,3-thiazolidin-4-one]	–	20%	–	88.1%	–	do not inhibit the endogenous MYC:TRRAP interaction	–	–	–	–
Oc1[nH]c2ccccc2c1/N=N/c1nc(-c2ccccc2)cs1 [Compound 1024, 3-[(4-phenyl-1,3-thiazol-2-yl)diazenyl]-1H-indol-2-ol]	–	–	–	39.63%	–	–	3.7 µM	3 to 5 µM	~ 10 fold	4.7 µM
